Measured values from PMC4468202, “Improved Visualization and Specific Binding for Metabotropic Glutamate Receptor Subtype 1 (mGluR1) Using [^11C]ITMM with Ultra-High Specific Activity in Small-Animal PET” (PLoS ONE, 2015).
“And” between values parts separate entries of the source, which are not always exact repeats. Identical values can stand only once.

Biological target: mGluR1 (Rattus norvegicus, UniProt P23385)
Assay: Two-tissue compartment model (2TCM) kinetic analysis of PET data
Type: in vivo
Parameters: from tissue; host or cells: living SD rat brain (in vivo PET)
Procedure: Kinetic analysis of [^11C]ITMM was performed using the two-tissue compartment model (2TCM). The compartments correspond to the radioactivity concentrations of unchanged radioprobe in the plasma (C P), free and non-specifically bound radioprobe (C 1), and radioprobe specifically bound to receptors (C 2). The rate constants K 1 and k 2 correspond to the influx and outflux rates of the radioprobe across the blood-brain barrier. The rate constants k 3 and k 4 correspond to the rates of radioprobe transfer between the C 1 and C 2 compartments. The blood volume fraction (vB) in the rat brain was fixed at 2% [28]. The four rate constants of the 2TCM were obtained by a nonlinear least squares fitting technique, using PMOD version 3.4 (PMOD Technologies).
The distribution of [^11C]ITMM in free or tissue compartments was described using the concept of free ligand distribution volume (DV f) or V T, which was defined by the following equations: DVf=K1/k2 (1) VT=DVf(1+k3/k4) (2)
The nondisplacable binding potential (BP ND) is defined using the index of specific bindings of the radioprobe, meaning the receptor density (B max) to binding affinity (K D) ratio, which corresponds with the ratio of k 3 to k 4 in the 2TCM [26]. The BP ND is defined as follows: BPND=fND⋅Bmax/KD=k3/k4 (3) Here, f ND represents the tissue-free fraction of radioprobe in the nondisplacable compartment. Although the fraction of radioprobe that is unbound to plasma proteins was not measured in the present study, the value of f ND is close to 1.0 [29].

[1] = cingulate cortex, conventional SA
[2] = cingulate cortex, ultra-high SA
[3] = substantia nigra, conventional SA
[4] = substantia nigra, ultra-high SA

Sequence of mGluR1 (P23385 19-1199): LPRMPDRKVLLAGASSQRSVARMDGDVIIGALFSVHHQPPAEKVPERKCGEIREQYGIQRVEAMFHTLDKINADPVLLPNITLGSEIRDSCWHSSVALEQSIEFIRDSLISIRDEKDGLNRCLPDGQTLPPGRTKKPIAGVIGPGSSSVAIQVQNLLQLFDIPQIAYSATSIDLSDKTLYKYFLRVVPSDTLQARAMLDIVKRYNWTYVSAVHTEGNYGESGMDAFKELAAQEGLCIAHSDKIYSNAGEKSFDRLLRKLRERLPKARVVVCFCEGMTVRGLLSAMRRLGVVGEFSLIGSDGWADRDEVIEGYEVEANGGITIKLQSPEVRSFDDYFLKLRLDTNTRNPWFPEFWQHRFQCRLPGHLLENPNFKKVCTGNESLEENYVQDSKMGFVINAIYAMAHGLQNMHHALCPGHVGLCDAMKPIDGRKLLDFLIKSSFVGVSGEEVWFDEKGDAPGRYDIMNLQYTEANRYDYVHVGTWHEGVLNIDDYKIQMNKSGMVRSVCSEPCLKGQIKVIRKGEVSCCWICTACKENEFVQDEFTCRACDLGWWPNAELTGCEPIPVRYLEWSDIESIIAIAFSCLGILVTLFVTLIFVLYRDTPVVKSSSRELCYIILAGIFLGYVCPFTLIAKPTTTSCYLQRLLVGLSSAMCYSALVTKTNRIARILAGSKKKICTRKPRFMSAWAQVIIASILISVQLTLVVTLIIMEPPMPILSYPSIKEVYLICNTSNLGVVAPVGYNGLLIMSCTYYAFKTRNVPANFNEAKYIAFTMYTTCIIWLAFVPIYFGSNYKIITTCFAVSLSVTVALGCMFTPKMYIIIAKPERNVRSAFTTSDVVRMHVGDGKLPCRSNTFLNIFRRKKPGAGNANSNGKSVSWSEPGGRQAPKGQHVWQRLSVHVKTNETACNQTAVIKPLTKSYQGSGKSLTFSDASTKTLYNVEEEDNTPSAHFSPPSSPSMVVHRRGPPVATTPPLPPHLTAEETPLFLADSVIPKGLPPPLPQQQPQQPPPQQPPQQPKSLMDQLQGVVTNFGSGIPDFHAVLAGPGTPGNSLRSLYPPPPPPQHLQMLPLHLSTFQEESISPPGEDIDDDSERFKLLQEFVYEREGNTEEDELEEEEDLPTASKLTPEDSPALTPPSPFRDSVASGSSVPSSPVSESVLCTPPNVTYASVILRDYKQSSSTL

SMILES: CC(C)Nc1cc(-c2csc(N(C)C(=O)c3ccc(O[11CH3])cc3)n2)ncn1 [[^11C]ITMM, N-[4-[6-(isopropylamino)pyrimidin-4-yl]-1,3-thiazol-2-yl]-4-[^11C]methoxy-N-methyl-benzamide]
- BP ND (k 3/k 4) (cerebellum, conventional SA): 33.2 ± 1.4
- DV f (K 1/k 2) (cerebellum, conventional SA): 0.429 ± 0.020
- K 1 (cerebellum, conventional SA): 0.344 ± 0.010 mL/cm^3/min
- V T (cerebellum, conventional SA): 14.56 ± 0.50 mL/cm^3
- k 2 (cerebellum, conventional SA): 0.811 ± 0.045 min⁻¹
- k 3 (cerebellum, conventional SA): 0.619 ± 0.035 min⁻¹
- k 4 (cerebellum, conventional SA): 0.019 ± 0.001 min⁻¹
- BP ND (k 3/k 4) (cerebellum, ultra-high SA): 48.9 ± 2.6
- DV f (K 1/k 2) (cerebellum, ultra-high SA): 0.336 ± 0.020
- K 1 (cerebellum, ultra-high SA): 0.366 ± 0.019 mL/cm^3/min
- V T (cerebellum, ultra-high SA): 16.69 ± 0.92 mL/cm^3
- k 2 (cerebellum, ultra-high SA): 1.112 ± 0.098 min⁻¹
- k 3 (cerebellum, ultra-high SA): 0.799 ± 0.035 min⁻¹
- k 4 (cerebellum, ultra-high SA): 0.016 ± 0.000 min⁻¹
- BP ND (k 3/k 4) [1]: 21.7 ± 1.2
- DV f (K 1/k 2) [1]: 0.302 ± 0.021
- K 1 [1]: 0.312 ± 0.008 mL/cm^3/min
- V T [1]: 6.76 ± 0.25 mL/cm^3
- k 2 [1]: 1.062 ± 0.086 min⁻¹
- k 3 [1]: 0.643 ± 0.053 min⁻¹
- k 4 [1]: 0.030 ± 0.001 min⁻¹
- BP ND (k 3/k 4) [2]: 32.8 ± 1.9
- DV f (K 1/k 2) [2]: 0.257 ± 0.008
- K 1 [2]: 0.339 ± 0.019 mL/cm^3/min
- V T [2]: 8.66 ± 0.45 mL/cm^3
- k 2 [2]: 1.317 ± 0.054 min⁻¹
- k 3 [2]: 0.740 ± 0.036 min⁻¹
- k 4 [2]: 0.023 ± 0.001 min⁻¹
- BP ND (k 3/k 4) (hippocampus, conventional SA): 24.8 ± 1.8
- DV f (K 1/k 2) (hippocampus, conventional SA): 0.292 ± 0.011
- K 1 (hippocampus, conventional SA): 0.303 ± 0.015 mL/cm^3/min
- V T (hippocampus, conventional SA): 7.44 ± 0.27 mL/cm^3
- k 2 (hippocampus, conventional SA): 1.052 ± 0.082 min⁻¹
- k 3 (hippocampus, conventional SA): 0.644 ± 0.051 min⁻¹
- k 4 (hippocampus, conventional SA): 0.026 ± 0.001 min⁻¹
- BP ND (k 3/k 4) (hippocampus, ultra-high SA): 38.2 ± 1.5
- DV f (K 1/k 2) (hippocampus, ultra-high SA): 0.228 ± 0.008
- K 1 (hippocampus, ultra-high SA): 0.320 ± 0.020 mL/cm^3/min
- V T (hippocampus, ultra-high SA): 8.93 ± 0.47 mL/cm^3
- k 2 (hippocampus, ultra-high SA): 1.415 ± 0.107 min⁻¹
- k 3 (hippocampus, ultra-high SA): 0.784 ± 0.027 min⁻¹
- k 4 (hippocampus, ultra-high SA): 0.021 ± 0.000 min⁻¹
- BP ND (k 3/k 4) (pons, conventional SA): 8.3 ± 0.5
- DV f (K 1/k 2) (pons, conventional SA): 0.224 ± 0.011
- K 1 (pons, conventional SA): 0.271 ± 0.015 mL/cm^3/min
- V T (pons, conventional SA): 2.06 ± 0.06 mL/cm^3
- k 2 (pons, conventional SA): 1.237 ± 0.122 min⁻¹
- k 3 (pons, conventional SA): 0.256 ± 0.022 min⁻¹
- k 4 (pons, conventional SA): 0.031 ± 0.001 min⁻¹
- BP ND (k 3/k 4) (pons, ultra-high SA): 9.8 ± 0.5
- DV f (K 1/k 2) (pons, ultra-high SA): 0.221 ± 0.015
- K 1 (pons, ultra-high SA): 0.244 ± 0.004 mL/cm^3/min
- V T (pons, ultra-high SA): 2.39 ± 0.23 mL/cm^3
- k 2 (pons, ultra-high SA): 1.131 ± 0.084 min⁻¹
- k 3 (pons, ultra-high SA): 0.253 ± 0.011 min⁻¹
- k 4 (pons, ultra-high SA): 0.026 ± 0.001 min⁻¹
- BP ND (k 3/k 4) (striatum, conventional SA): 20.0 ± 1.1
- DV f (K 1/k 2) (striatum, conventional SA): 0.367 ± 0.015
- K 1 (striatum, conventional SA): 0.278 ± 0.014 mL/cm^3/min
- V T (striatum, conventional SA): 7.7 mL/cm^3 and 7.66 ± 0.28 mL/cm^3
- k 2 (striatum, conventional SA): 0.769 ± 0.061 min⁻¹
- k 3 (striatum, conventional SA): 0.612 ± 0.036 min⁻¹
- k 4 (striatum, conventional SA): 0.031 ± 0.001 min⁻¹
- BP ND (k 3/k 4) (striatum, ultra-high SA): 30.6 ± 1.8
- DV f (K 1/k 2) (striatum, ultra-high SA): 0.311 ± 0.021
- K 1 (striatum, ultra-high SA): 0.294 ± 0.014 mL/cm^3/min
- V T (striatum, ultra-high SA): 9.7 mL/cm^3 and 9.66 ± 0.41 mL/cm^3
- k 2 (striatum, ultra-high SA): 0.972 ± 0.083 min⁻¹
- k 3 (striatum, ultra-high SA): 0.722 ± 0.043 min⁻¹
- k 4 (striatum, ultra-high SA): 0.024 ± 0.001 min⁻¹
- BP ND (k 3/k 4) [3]: 16.6 ± 1.6
- DV f (K 1/k 2) [3]: 0.378 ± 0.030
- K 1 [3]: 0.298 ± 0.021 mL/cm^3/min
- V T [3]: 6.4 mL/cm^3 and 6.44 ± 0.22 mL/cm^3
- k 2 [3]: 0.840 ± 0.128 min⁻¹
- k 3 [3]: 0.470 ± 0.031 min⁻¹
- k 4 [3]: 0.029 ± 0.001 min⁻¹
- BP ND (k 3/k 4) [4]: 26.1 ± 2.0
- DV f (K 1/k 2) [4]: 0.321 ± 0.023
- K 1 [4]: 0.292 ± 0.012 mL/cm^3/min
- V T [4]: 8.5 mL/cm^3 and 8.53 ± 0.47 mL/cm^3
- k 2 [4]: 0.933 ± 0.075 min⁻¹
- k 3 [4]: 0.602 ± 0.036 min⁻¹
- k 4 [4]: 0.023 ± 0.001 min⁻¹
- BP ND (k 3/k 4) (thalamus, conventional SA): 25.5 ± 1.2
- DV f (K 1/k 2) (thalamus, conventional SA): 0.347 ± 0.018
- K 1 (thalamus, conventional SA): 0.303 ± 0.012 mL/cm^3/min
- V T (thalamus, conventional SA): 9.1 mL/cm^3 and 9.12 ± 0.37 mL/cm^3
- k 2 (thalamus, conventional SA): 0.886 ± 0.064 min⁻¹
- k 3 (thalamus, conventional SA): 0.669 ± 0.033 min⁻¹
- k 4 (thalamus, conventional SA): 0.026 ± 0.001 min⁻¹
- BP ND (k 3/k 4) (thalamus, ultra-high SA): 38.5 ± 1.1
- DV f (K 1/k 2) (thalamus, ultra-high SA): 0.284 ± 0.018
- K 1 (thalamus, ultra-high SA): 0.313 ± 0.016 mL/cm^3/min
- V T (thalamus, ultra-high SA): 11.2 mL/cm^3 and 11.15 ± 0.51 mL/cm^3
- k 2 (thalamus, ultra-high SA): 1.125 ± 0.088 min⁻¹
- k 3 (thalamus, ultra-high SA): 0.817 ± 0.025 min⁻¹
- k 4 (thalamus, ultra-high SA): 0.021 ± 0.000 min⁻¹
